Assay results published in patent US6921821B2, “Antagonists of melanin concentrating hormone receptor” (Abbott Laboratories, priority 2002, dated 2005).
Where a name gives a salt, the structure may show the parent alone.

Biological target: T1, murine MCHR (Mus musculus, UniProt Q8JZL2)
T1 construct: expressed in transfected cells; host or cells: HEK293
Test: Assay for release of intracellular calcium (FLIPR, Fluo-4), inhibition of MCH-induced Ca++ flux
Assay type: cell-based
Details: test compound at a dose of 10 μM, HEK293 cells expressing the murine MCHR, read-out: inhibition of MCH (MCH induced Ca++ flux / fluorescence)
Description: Assay for Release of Intracellular Calcium
Activation of the melanin concentrating hormone receptor (MCHR) by MCH induces the release of Ca^++ from intracellular stores. This intracellular calcium release is measured using a fluorometric imaging plate reader (FLIPR™, Molecular Devices Corp.) in conjunction with the Ca^++-sensitive dye Fluo-4. Release of Ca^++ from intracellular stores causes an increase in fluorescence of the dye that is proportional to Ca^++ concentration. Briefly, the assays are performed as follows. HEK293 cells expressing the murine MCHR are plated overnight at 50,000 cells/well in 96-well plates. The following day, culture medium is removed and replaced with 100 μl/well of D-PBS (+glucose and sodium pyruvate) containing 2.5 μM Fluo-4AM (Molecular Probes), 0.01% Pluronic F-127 and 2.5 mM probenecid. Cells are loaded with the Fluo-4 dye for at least one hour at room temp. After loading, the cells are washed gently to remove extracellular dye and 100 μl of D-PBS (+glucose and sodium pyruvate) is added to each well. Test compounds are prepared at 40 μM in 4% DMSO. The cell plate is placed in the FLIPR™ and 50 μl/well of test compound is delivered. The calcium signal is followed for 3 minutes to assay for potential agonist activity by the test compounds. Then 50 μl/well of 12 nM mouse MCH (in D-PBS containing 0.1% BSA) is added and the ligand-induced calcium signal is followed for an additional 3 minutes. Antagonist activity as determined by the test compounds ability to inhibit MCH induced Ca^++ flux is calculated as % inhibition as described by the following formula: % inhibition=[1−((fTC−fB)÷(fMCH−fB))]×100, where fTC=MCH-induced fluorescence in the presence of test compound; fMCH=MCH-induced fluorescence in the absence of test compound; and fB=Baseline fluorescence.
MCH (3 nM) usually elicits a response of 30,000-40,000 relative fluorescence units (RFU) with a baseline of about 1000 RFU. Fluo-4 fluorescence is measured at 488 nm, with an exposure of 0.40 sec. and F-stop=2.0 and the laser set at 0.40-0.60 W constant light output.

T1 sequence (Q8JZL2 whole entry): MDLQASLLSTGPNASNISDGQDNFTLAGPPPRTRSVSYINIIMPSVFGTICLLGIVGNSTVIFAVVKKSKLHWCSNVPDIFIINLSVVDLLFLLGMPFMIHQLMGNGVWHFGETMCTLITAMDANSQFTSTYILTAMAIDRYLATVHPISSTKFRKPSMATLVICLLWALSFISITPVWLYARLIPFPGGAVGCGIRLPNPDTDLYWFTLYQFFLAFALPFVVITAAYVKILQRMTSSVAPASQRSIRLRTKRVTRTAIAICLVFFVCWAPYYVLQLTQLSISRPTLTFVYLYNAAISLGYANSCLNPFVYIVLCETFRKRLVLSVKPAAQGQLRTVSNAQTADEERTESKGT

Row | inhibition at 10 µM [%] | SMILES
1 | ≥ 50 | O=c1cc(NC2CCN(Cc3cccc4ccccc34)CC2)c2cc(Cl)ccc2o1 [II-5, 6-Chloro-4-(1-naphthalen-1-ylmethyl-piperidin-4-ylamino)-chromen-2-one]
2 | ≥ 50 | O=c1cc(NC2CCN(Cc3csc4ccccc34)CC2)c2cc(Cl)ccc2o1 [II-6, 4-(1-Benzo[b]thiophen-3-ylmethyl-piperidin-4-ylamino)-6-chloro-chromen-2-one]
3 | ≥ 50 | O=c1cc(NC2CCN(Cc3cc4ccccc4o3)CC2)c2cc(Cl)ccc2o1 [II-18, 4-(1-Benzofuran-2-ylmethyl-piperidin-4-ylamino)-6-chloro-chromen-2-one]
4 | ≥ 50 | COc1ccc2oc(=O)cc(NC3CCN(Cc4ccc5ccccc5c4)CC3)c2c1 [II-19, 6-Methoxy-4-(1-naphthalen-2-ylmethyl-piperidin-4-ylamino)-chromen-2-one trifluoroacetate]
5 | ≥ 50 | COc1ccc2oc(=O)cc(NC3CCN(Cc4ccc(C)cc4C)CC3)c2c1 [II-25, 4-[1-(2,4-Dimethyl-benzyl)-piperidin-4-ylamino]-6-methoxy-chromen-2-one trifluoroacetate]
6 | ≥ 50 | COc1ccc2oc(=O)c(F)c(NC3CCN(Cc4ccc5c(c4)OCO5)CC3)c2c1 [II-26, 4-(1-Benzo{1,3}dioxol-5-ylmethyl-piperidin-4-ylamino)-3-fluoro-6-methoxychromene-2-one]
7 | ≥ 50 | COc1ccc2oc(=O)cc(NC3CCN(Cc4ccc5ccc(C)cc5c4)CC3)c2c1 [II-27, 6-Methoxy-4-[1-(7-methyl-naphthalen-2-ylmethyl)-piperidin-4-ylamino]-chromen-2-one trifluoroacetate]
8 | ≥ 50 | C[C@H](c1ccc2c(c1)OCO2)N1CCC(Nc2cc(=O)oc3ccc(Cl)cc23)CC1 [II-28, 4-[1-(1-Benzo[1,3]dioxol-5-yl-ethyl)-piperidin-4-ylamino]-6-chloro-chromen-2-one]
9 | ≥ 50 | COc1ccc2oc(=O)cc(NC3CCN(Cc4ccc(C)c(C)c4)CC3)c2c1 [II-29, 4-[1-(3,4-Dimethyl-benzyl)-piperidin-4-ylamino]-6-methoxy-chromen-2-one trifluoroacetate]
10 | ≥ 50 | O=c1cc(NC2CCN(Cc3ccc4cc[nH]c4c3)CC2)c2cc(Cl)ccc2o1 [II-31, 6-Chloro-4-[1-(1H-indol-6-ylmethyl)-piperidin-4-ylamino]-chromen-2-one]
11 | ≥ 50 | O=c1cc(NC2CCN(Cc3ccc4ccccc4c3)CC2)c2cc(OC(F)F)ccc2o1 [II-32, 6-Difluoromethoxy-4-(1-naphthalen-2-ylmethyl-piperidin-4-ylamino)-chromen-2-one]
12 | ≥ 50 | CCn1ccc2cc(CN3CCC(Nc4cc(=O)oc5ccc(OC)cc45)CC3)ccc21 [II-33, 6-Methoxy-4-[N-ethylindole-5-ylmethyl-piperidin-4-ylamino]-chromen-2-one]
13 | ≥ 50 | COc1ccc2oc(=O)cc(NC3CCN(Cc4ccc(C)cc4)CC3)c2c1 [II-34, 6-Methoxy-4-[1-(4-methyl-benzyl)-piperidin-4-ylamino]-chromen-2-one trifluoroacetate]
14 | ≥ 50 | C=Cc1ccc2oc(=O)cc(NC3CCN(Cc4ccc5c(c4)OCO5)CC3)c2c1 [II-35, 4-(1-Benzo[1,3]dioxol-5-ylmethyl-piperidin-4-ylamino)-6-vinyl-chromen-2-one]
15 | ≥ 50 | O=c1cc(NC2CCN(Cc3ccc4ccoc4c3)CC2)c2cc(Cl)ccc2o1 [II-36, 4-(1-Benzofuran-6-ylmethyl-piperidin-4-ylamino)-6-chloro-chromen-2-one]
16 | ≥ 50 | COc1ccc2oc(=O)cc(NC3CCN(Cc4ccc(OC)c(C)c4)CC3)c2c1 [II-37, 6-Methoxy-4-[1-(4-methoxy-3-methyl-benzyl)-piperidin-4-ylamino]-chromen-2-one trifluoroacetate]
17 | ≥ 50 | COc1ccc(CN2CCC(Nc3cc(=O)oc4ccc(OC)cc34)CC2)cc1 [II-39, 6-Methoxy-4-[1-(4-methoxy-benzyl)-piperidin-4-ylamino]-chromen-2-one trifluoroacetate]

Row | inhibition at 10 µM [%] | SMILES
18 | ≥ 50 | O=c1cc(NC2CCN(Cc3ccc4ncccc4c3)CC2)c2cc(Cl)ccc2o1 [II-40, 6-Chloro-4-(1-quinolin-6-ylmethyl-piperidin-4-ylamino)-chromen-2-one]
19 | ≥ 50 | O=c1cc(NC2CCN(Cc3ccc4c(c3)OCO4)CC2)c2cc(Cl)cc(Br)c2o1 [II-41, 4-(1-Benzo[1,3]dioxol-5-ylmethyl-piperidin-4-ylamino)-8-bromo-6-chloro-chromen-2-one]
20 | ≥ 50 | CC(=O)Nc1c(NC2CCN(Cc3ccc4c(c3)OCO4)CC2)c2cc(Cl)ccc2oc1=O [II-42, N-[4-(1-Benzo[1,3]dioxol-5-ylmethyl-piperidin-4-ylamino)-6-chloro-2-oxo-2H-chromen-3-yl]-acetamide]
21 | ≥ 50 | COc1ccc2oc(=O)cc(NC3CCN(Cc4ccc(OC(F)F)cc4)CC3)c2c1 [II-43, 4-[1-(4-Difluoromethoxy-benzyl)-piperidin-4-ylamino]-6-methoxy-chromen-2-one trifluoroacetate]
22 | ≥ 50 | COc1ccc2oc(=O)cc(NC3CCN(Cc4ccc5ocnc5c4)CC3)c2c1 [II-44, 4-(1-Benzooxazol-5-ylmethyl-piperidin-4-ylamino)-6-methoxy-chromen-2-one]
23 | ≥ 50 | C=Cc1ccc2oc(=O)cc(NC3CCN(Cc4ccc(C)c(C)c4)CC3)c2c1 [II-46, 4-{1-(3,4-Dimethyl-benzyl)-piperidin-4-ylamino}-6-vinyl-chromen-2-one]
24 | ≥ 50 | COc1ccc2oc(=O)cc(NC3CCN(Cc4ccc(OCCCN5CCCCC5)c(F)c4)CC3)c2c1 [II-47, 4-{1-[3-Fluoro-4-(3-piperidin-1-yl-propoxy)-benzyl]-piperidin-4-ylamino}-6-methoxy-chromen-2-one; Double TFA Salt]
25 | ≥ 50 | CC(=O)c1ccc(CN2CCC(Nc3cc(=O)oc4ccc(Cl)cc34)CC2)cc1 [II-48, 4-[1-(4-Acetyl-benzyl)-piperidin-4-ylamino]-6-chloro-chromen-2-one]
26 | ≥ 50 | O=c1cc(NC2CCN(Cc3ccc(OCCCN4CCCCC4)cc3)CC2)c2cc(Cl)ccc2o1 [II-49, 6-Chloro-4-{1-[4-(3-piperidin-1-yl-propoxy)-benzyl]-piperidin-4-ylamino}-chromen-2-one; Double TFA Salt]
27 | ≥ 50 | O=c1cc(NC2CCN(Cc3ccc4c(c3)OCCCO4)CC2)c2cc(Cl)ccc2o1 [II-51, 6-Chloro-4-[1-(3,4-dihydro-2H-benzo[b][1,4]dioxepin-7-ylmethyl)-piperidin-4-ylamino]-chromen-2-one]
28 | ≥ 50 | COc1ccc2oc(=O)cc(NC3CCN(Cc4ccc5[nH]ccc5c4)CC3)c2c1 [II-54, 4-[1-(1H-Indol-5-ylmethyl)-piperidin-4-ylamino]-6-methoxy-chromen-2-one]
29 | ≥ 50 | O=C(NCCN1CCCC1)c1ccc(CN2CCC(Nc3cc(=O)oc4ccc(Cl)cc34)CC2)cc1 [II-55, 4-[4-(6-Chloro-2-oxo-2H-chromen-4-ylamino)-piperidin-1-ylmethyl]-N-(2-pyrrolidin-1-yl-ethyl)-benzamide; Double TFA Salt]
30 | ≥ 50 | C=Cc1ccc2oc(=O)cc(NC3CCN(Cc4ccc5c(c4)OCCO5)CC3)c2c1 [II-57, 4-{1-(2,3-Dihydrobenzo{1,4}dioxin-6-ylmethyl)-piperidin-4-ylamino}-6-vinyl-chromen-2-one]
31 | ≥ 50 | COc1ccc2oc(=O)cc(NC3CCN(Cc4ccc(Cl)c(F)c4)CC3)c2c1 [II-58, 4-[1-(4-Chloro-3-fluoro-benzyl)-piperidin-4-ylamino]-6-methoxy-chromen-2-one trifluoroacetate]
32 | ≥ 50 | O=c1cc(NC2CCN(Cc3ccc(Cl)cc3)CC2)c2cc(Cl)ccc2o1 [II-59, 6-Chloro-4-{1-(4-chloro-benzyl)-piperidin-4-ylamino}-chromen-2-one]
33 | ≥ 50 | CC(c1ccc2c(c1)OCO2)N1CCC(Nc2cc(=O)oc3ccc(Cl)cc23)CC1 (centres unmarked) [II-60, 4-[1-(1-Benzo[1,3]dioxol-5-yl-ethyl)-piperidin-4-ylamino]-6-chloro-chromen-2-one]
34 | ≥ 50 | Cc1cc2cc(CN3CCC(Nc4cc(=O)oc5ccc(Cl)cc45)CC3)ccc2o1 [II-61, 6-Chloro-4-[1-(2-methyl-benzofuran-5-ylmethyl)-piperidin-4-ylamino]-chromen-2-one]

Row | SMILES | inhibition at 10 µM [%]
35 | CCCCOc1ccc(CN2CCC(Nc3cc(=O)oc4ccc(OC)cc34)CC2)cc1 [II-50, 4-[1-(4-Butoxy-benzyl)-piperidin-4-ylamino]-6methoxy-chromen-2-one trifluoroacetate] | ≥ 50
